Measured values reported in PMC7232244, “Aspartic Acid Isomerization Characterized by High Definition Mass Spectrometry Significantly Alters the Bioactivity of a Novel Toxin from Poecilotheria” (Toxins, 2020).
Numbered stars: 1 amine (or outer) side, 2 acyl side, 3 side chain; on linkers, the order of the positions; unused ones are H or OH. Bridge positions count the residues as written; N and C are the ends. Square brackets hold non-standard residues; d marks the D form. Peptide text beside a SMILES is read from it. βAsp = O=C(O)[C@H](CC(=O)[*:2])N[*:1]

Format: physicochemical
Settings: chromatographic, reversed-phase UPLC BEH C18, 0.10% formic acid/acetonitrile gradient; P. vittata venom (Figure 3A); taken as increased solubility / loss of hydrophobicity
From the text: We used an iterative series of analytical processes to identify potential peptide modulators for neuronal activity and subsequently identified their primary structure, including PTMs, that may alter their efficacy and potency. In the initial phase of toxin selection, venom from Poecilotheria were collected and screened by HDMS^E. The venom was a complex mixture of molecules with a high percentage of proteinaceous materials ranging from 3–6 kDa with an average venom yield from 50 collections (five from each of the ten species) of ~148 ± 12 μg of total protein per μL of venom as determined by conventional Bradford assay (data not shown). An analytical screening of each venom was performed for preliminary compound identification and any PTMs, e.g., isobaric conformations. 100 μg of lyophilized venom from each species of Poecilotheria were suspended in 1 mL of the initial mobile phase and a 1 μL aliquot injection was made into an UPLC coupled to a HDMS. […]
In order to calculate the molecular mass, we deconvoluted the charge envelope of each peptide using high-resolution mass spectrometry MS scans (“MS” in HDMS^E). […] The molecular monoisotopic masses of PcaTX-1a and PcaTX-1b were determined to be 4024.710 Da and 4024.709 Da, respectively (Figure 3B,C). […]

## CC(C)C[C@@H]1NC(=O)[C@H](Cc2c[nH]cn2)NC(=O)[C@H](CCCCN)NC(=O)[C@@H]2CSSC[C@H](NC(=O)CNC(=O)[C@H](C)N)C(=O)N[C@@H](CCCCN)C(=O)N[C@@H](Cc3ccc(O)cc3)C(=O)N[C@@H](CC(C)C)C(=O)N[C@@H](Cc3ccccc3)C(=O)NCC(=O)N[C@@H](CO)C(=O)N[C@H]3CSSC[C@H](NC(=O)CNC1=O)C(=O)N[C@@H](CCCNC(=N)N)C(=O)N[C@@H](CCCNC(=N)N)C(=O)N[C@@H](CCCCN)C(=O)N[C@@H](C)C(=O)N1CCC[C@H]1C(=O)N[C@@H](CCC(N)=O)C(=O)N[C@@H](Cc1ccc(O)cc1)C(=O)N[C@H](C(=O)NCC(=O)N[C@@H](Cc1c[nH]c4ccccc14)C(=O)N[C@@H](CC(=O)NCC(=O)N[C@H](C(=O)N[C@@H](Cc1ccccc1)C(N)=O)[C@@H](C)O)C(=O)O)CSSC[C@H](NC(=O)[C@H](CC(=O)O)NC(=O)[C@H](CO)NC(=O)[C@H](CC(=O)O)NC(=O)[C@H](CCC(=O)O)NC(=O)[C@H](CCCCN)NC3=O)C(=O)N2 [PcaTX-1a] (H-AGCKYLFGSCKEDSDCCKHLGCRRKAPQYCGW[βAsp]GTF-NH2; disulfide 3-17, 10-22, 16-30)
  decrease of partition coefficient (k') as compared to PcaTX-1b: 9.3%
